The record followed here is ChEMBL document CHEMBL2062392, “Structure-Activity Relationship for Thiirane-Based Gelatinase Inhibitors” (ACS Med Chem Lett, 2012).

Data set [1] deals with Matrix metalloproteinase-14 (Homo sapiens, UniProt P50281).
Description: Competitive inhibition of human MMP14 using fluorogenic substrate by Dixon plot analysis
A further data set deals with T1, Interstitial collagenase (Homo sapiens, UniProt P03956).
T1 sequence (P03956 whole entry): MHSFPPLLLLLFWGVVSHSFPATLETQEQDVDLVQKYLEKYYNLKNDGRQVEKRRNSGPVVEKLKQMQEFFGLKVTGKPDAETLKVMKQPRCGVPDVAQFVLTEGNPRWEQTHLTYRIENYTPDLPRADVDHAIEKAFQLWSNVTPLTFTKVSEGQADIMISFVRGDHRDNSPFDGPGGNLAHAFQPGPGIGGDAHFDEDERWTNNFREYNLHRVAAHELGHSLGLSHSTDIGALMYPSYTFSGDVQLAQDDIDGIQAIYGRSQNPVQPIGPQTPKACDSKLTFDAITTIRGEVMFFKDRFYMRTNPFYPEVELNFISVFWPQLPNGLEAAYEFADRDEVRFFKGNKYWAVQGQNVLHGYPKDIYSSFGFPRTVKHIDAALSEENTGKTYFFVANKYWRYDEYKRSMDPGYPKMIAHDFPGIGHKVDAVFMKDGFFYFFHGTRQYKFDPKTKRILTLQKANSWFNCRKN

Data set [2] addresses 72 kDa type IV collagenase (Homo sapiens, UniProt P08253).
Description: Competitive inhibition of human MMP2 using fluorogenic substrate by Dixon plot analysis
Another data set addresses T2, Matrilysin (Homo sapiens, UniProt P09237).
T2 sequence (P09237 whole entry): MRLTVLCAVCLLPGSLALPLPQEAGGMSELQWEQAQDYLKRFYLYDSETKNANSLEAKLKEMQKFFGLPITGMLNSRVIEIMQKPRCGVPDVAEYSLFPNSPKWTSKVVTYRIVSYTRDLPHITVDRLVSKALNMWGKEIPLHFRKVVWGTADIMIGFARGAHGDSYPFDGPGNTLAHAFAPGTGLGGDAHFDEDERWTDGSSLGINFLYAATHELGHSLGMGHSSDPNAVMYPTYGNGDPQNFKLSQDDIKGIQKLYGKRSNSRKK

Data set [3] concerns the target T3, Stromelysin-1 (Homo sapiens, UniProt P08254).
Target sequence in this assay (P08254 whole entry): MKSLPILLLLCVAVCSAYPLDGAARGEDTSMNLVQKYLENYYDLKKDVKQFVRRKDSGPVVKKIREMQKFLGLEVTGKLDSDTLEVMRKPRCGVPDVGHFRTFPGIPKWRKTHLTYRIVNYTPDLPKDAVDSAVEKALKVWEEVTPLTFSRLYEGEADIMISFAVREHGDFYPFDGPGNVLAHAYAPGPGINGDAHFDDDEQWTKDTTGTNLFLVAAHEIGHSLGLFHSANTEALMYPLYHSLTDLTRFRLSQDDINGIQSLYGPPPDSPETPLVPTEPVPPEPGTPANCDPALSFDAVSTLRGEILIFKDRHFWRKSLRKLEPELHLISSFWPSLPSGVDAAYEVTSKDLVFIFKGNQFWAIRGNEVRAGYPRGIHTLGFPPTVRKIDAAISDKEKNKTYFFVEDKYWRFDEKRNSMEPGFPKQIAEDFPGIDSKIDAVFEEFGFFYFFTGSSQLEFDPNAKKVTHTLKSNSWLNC
Description: Competitive inhibition of human MMP3 using fluorogenic substrate by Dixon plot analysis
For another data set, the system named is Liver. As to the kind of experiment: Half life in rat liver S9 fraction at 10 uM by UPLC analysis. Conditions: s9, 10 µM. The class given is ADME, subcellular.
For data set [4], the target named is Matrix metalloproteinase-9 (Homo sapiens, UniProt P14780).
Description: Competitive inhibition of human MMP9 using fluorogenic substrate by Dixon plot analysis
The target of data set [5] is T4, Interstitial collagenase (Homo sapiens) (UniProt P03956).
T4 sequence (whole entry): T1 sequence (P03956 whole entry)
Description: Competitive inhibition of human MMP1 using fluorogenic substrate at 100 uM by Dixon plot analysis.

Data set [6] addresses T5, Matrilysin (Homo sapiens) (UniProt P09237).
T5 sequence (whole entry): T2 sequence (P09237 whole entry)
As to the kind of experiment: Competitive inhibition of human MMP7 using fluorogenic substrate at 125 uM by Dixon plot analysis.

The target of data set [7] is T5, Matrilysin (Homo sapiens). As to the kind of experiment: Competitive inhibition of human MMP7 using fluorogenic substrate at 75 uM by Dixon plot analysis.
Data set [8] has as its system Liver microsomes. As to the kind of experiment: Drug metabolism in rat liver microsomes assessed as 4-(4-(thiiran-2-ylmethylsulfonyl)phenoxy)benzaldehyde formation at 50 uM after 15 mins by tandem MS analysis. The class given is ADME, Microsome. Conditions: 0.25 h.
The subject of data set [9] is Liver microsomes. As to the kind of experiment: Drug metabolism in rat liver microsomes assessed as 4-(4-(hydroxymethyl)phenoxy)benzenesulfinic acid formation at 50 uM after 15 mins by tandem MS analysis. It is filed as ADME, Microsome. Conditions: 0.25 h.
For data set [10], the system named is Liver microsomes. As to the kind of experiment: Drug metabolism in rat liver microsomes assessed as 4-(4-(thiiran-2-ylmethylsulfonyl)phenoxy)benzoic acid formation at 50 uM after 15 mins by tandem MS analysis. It is filed as ADME, Microsome. Conditions: 0.25 h.
Data set [11] has as its target T5, Matrilysin (Homo sapiens). Description: Competitive inhibition of human MMP7 using fluorogenic substrate at 10 uM by Dixon plot analysis.
The target in data set [12] is T3, Stromelysin-1. Description: Competitive inhibition of human MMP3 using fluorogenic substrate at 60 uM by Dixon plot analysis.
Target sequence in this assay (P08254 100-477 limits assumed): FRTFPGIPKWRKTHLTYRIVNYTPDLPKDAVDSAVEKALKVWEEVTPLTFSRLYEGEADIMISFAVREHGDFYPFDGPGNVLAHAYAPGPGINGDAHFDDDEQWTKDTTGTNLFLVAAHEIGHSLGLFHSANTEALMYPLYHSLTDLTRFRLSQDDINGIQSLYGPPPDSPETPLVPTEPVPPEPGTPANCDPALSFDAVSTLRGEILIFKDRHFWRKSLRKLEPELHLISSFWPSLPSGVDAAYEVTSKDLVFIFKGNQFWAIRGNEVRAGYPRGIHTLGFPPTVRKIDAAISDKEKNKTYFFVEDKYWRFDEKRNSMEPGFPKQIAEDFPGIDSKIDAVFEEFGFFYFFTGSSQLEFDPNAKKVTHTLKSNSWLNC
For data set [13], the target named is T4, Interstitial collagenase (Homo sapiens). Description: Competitive inhibition of human MMP1 using fluorogenic substrate at 60 uM by Dixon plot analysis.
Data set [14] shares this target. Description: Competitive inhibition of human MMP1 using fluorogenic substrate at 50 uM by Dixon plot analysis.
Data set [15] concerns the target T5, Matrilysin (Homo sapiens). Description: Competitive inhibition of human MMP7 using fluorogenic substrate at 20 uM by Dixon plot analysis.
The target of data set [16] is T4, Interstitial collagenase (Homo sapiens). As to the kind of experiment: Competitive inhibition of human MMP1 using fluorogenic substrate at 20 uM by Dixon plot analysis.
For data set [17], the target named is T3, Stromelysin-1. As to the kind of experiment: Competitive inhibition of human MMP3 using fluorogenic substrate at 20 uM by Dixon plot analysis.
Target sequence in this assay (P08254 100-477 limits assumed): as above

Activity calls are given as the source filed them. The rule behind the calls is not given here.

Chain of Matrix metalloproteinase-9 (P14780 whole entry): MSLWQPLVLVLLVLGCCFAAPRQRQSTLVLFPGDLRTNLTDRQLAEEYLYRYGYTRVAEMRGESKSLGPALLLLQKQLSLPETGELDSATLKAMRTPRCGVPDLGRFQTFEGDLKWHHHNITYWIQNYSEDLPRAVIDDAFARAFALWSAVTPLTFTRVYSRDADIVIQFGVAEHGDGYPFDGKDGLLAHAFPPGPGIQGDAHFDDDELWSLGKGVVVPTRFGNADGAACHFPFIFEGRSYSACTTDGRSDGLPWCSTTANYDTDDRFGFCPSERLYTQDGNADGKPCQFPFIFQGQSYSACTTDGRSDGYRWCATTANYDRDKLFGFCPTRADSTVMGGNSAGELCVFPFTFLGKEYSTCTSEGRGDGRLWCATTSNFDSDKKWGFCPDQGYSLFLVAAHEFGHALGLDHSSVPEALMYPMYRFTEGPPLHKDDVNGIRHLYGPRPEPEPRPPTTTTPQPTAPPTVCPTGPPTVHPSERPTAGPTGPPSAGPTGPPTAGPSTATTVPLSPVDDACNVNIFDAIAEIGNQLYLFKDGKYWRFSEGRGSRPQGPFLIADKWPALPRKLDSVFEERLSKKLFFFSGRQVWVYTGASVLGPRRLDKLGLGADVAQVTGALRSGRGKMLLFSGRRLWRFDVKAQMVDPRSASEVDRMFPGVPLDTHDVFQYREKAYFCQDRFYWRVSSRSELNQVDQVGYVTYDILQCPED
Chain of 72 kDa type IV collagenase (P08253 whole entry): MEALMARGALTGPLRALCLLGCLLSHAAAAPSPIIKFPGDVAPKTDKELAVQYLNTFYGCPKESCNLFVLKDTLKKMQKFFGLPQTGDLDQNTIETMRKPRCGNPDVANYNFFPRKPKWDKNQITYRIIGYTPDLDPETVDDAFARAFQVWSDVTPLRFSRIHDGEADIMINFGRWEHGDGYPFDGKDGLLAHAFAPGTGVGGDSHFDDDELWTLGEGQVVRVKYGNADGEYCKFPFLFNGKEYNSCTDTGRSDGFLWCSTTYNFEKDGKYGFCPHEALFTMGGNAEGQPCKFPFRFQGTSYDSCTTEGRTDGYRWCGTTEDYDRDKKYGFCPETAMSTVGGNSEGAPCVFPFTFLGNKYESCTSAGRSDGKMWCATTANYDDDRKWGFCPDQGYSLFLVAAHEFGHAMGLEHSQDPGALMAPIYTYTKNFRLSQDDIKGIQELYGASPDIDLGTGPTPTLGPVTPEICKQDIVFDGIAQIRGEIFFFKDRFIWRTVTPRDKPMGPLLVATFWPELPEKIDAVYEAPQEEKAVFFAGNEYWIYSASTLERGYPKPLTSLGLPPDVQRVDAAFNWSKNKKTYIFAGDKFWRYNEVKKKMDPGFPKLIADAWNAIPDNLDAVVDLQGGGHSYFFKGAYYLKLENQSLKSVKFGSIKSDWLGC

Turning to `O=S(=O)(CC1CS1)c1ccc(Oc2ccc(O)cc2)cc1` (racemic), the Ki is 90 nM in data set [1]; 128000 nM on Interstitial collagenase; 6 nM in data set [2]; 31000 nM at Matrilysin; 2200 nM at Stromelysin-1 [3]. The t1/2 in the data set with Liver was found to be 23 min.

Regarding `O=S(=O)(CC1CS1)c1ccc(Oc2cccc(F)c2)cc1` (racemic), the Ki in data set [4] came to 3000 nM; in [1] it was 190 nM; in data set [2], 450 nM; on Stromelysin-1 [3] it was 27000 nM. In [5], this compound had an inhibition of 7%. Moreover, the inhibition entry in [6] is “inactive”. This compound also had a t1/2 with Liver of 2.9 min.

Consider `COCOc1ccc(Oc2ccc(S(=O)(=O)CC3CS3)cc2)cc1` (racemic), for which the Ki was determined as 160 nM in data set [4], 140 nM in [1], 180 nM in [2] and 12000 nM at Stromelysin-1 [3]. Besides, the inhibition is 19% in data set [7] and 6% in data set [5]. The t1/2 in the data set on Liver amounted to 7.7 min.

On to `O=S(=O)(CC1CS1)c1ccc(Oc2ccc(CO)cc2)cc1` (racemic), for which the Drug metabolism entry in the data set with Liver microsomes [8], in the data set with Liver microsomes [9] and in the data set on Liver microsomes [10] was “Active” in each case. For the same compound, the Ki was found to be 390 nM in data set [4]; 215 nM in data set [1]; 205000 nM on Interstitial collagenase; 78 nM in [2]; 48500 nM at Matrilysin; 4100 nM at Stromelysin-1 [3]. Besides, the t1/2 with Liver worked out at 13 min.

Turning to `O=S(=O)(CC1CS1)c1ccc(Oc2ccc(I)cc2)cc1` (racemic), the Ki in [4] was determined as 290 nM; in data set [2], 600 nM. Further, the inhibition result in [11] and in [13] was “inactive” in each case. Further, the inhibition on Stromelysin-1 [12] came out at 18%. Also, the t1/2 with Liver is on record as 7.2 min.

Consider `CC(C)Oc1ccc(Oc2ccc(S(=O)(=O)CC3CS3)cc2)cc1` (racemic), for which the inhibition constant Ki was determined as 470 nM in data set [4], 280 nM in data set [1], 300 nM in [2] and 17000 nM at Stromelysin-1 [3]. Moreover, the inhibition in [14] is 11%; in data set [15], 30%.

In [1], `O=S(=O)(CC1CS1)c1ccc(Oc2ccccc2)cc1` (stereo not given) yielded a Ki of 37 nM. The compound also had a t1/2 with Liver of 4.4 min.

Turning to `O=S(=O)(CC1CS1)c1ccc(Oc2ccc(OC(F)(F)F)cc2)cc1` (racemic), the figures for the Ki in data set [4], in data set [1] and in [2] were 930 nM, 5080 nM and 110 nM, respectively. For the same compound, the inhibition came to 3% in data set [16] and 14% on Stromelysin-1 [17]. Besides, in the data set with Liver, the t1/2 is recorded as 7.3 min. For the same compound, the inhibition result in data set [15] was “inactive”.

On Stromelysin-1 [3], `CS(=O)(=O)Oc1ccc(Oc2ccc(S(=O)(=O)CC3CS3)cc2)cc1` (racemic) came in with a Ki of 575 nM. The compound also had a t1/2 in the data set with Liver of 27 min.

As to `O=S(=O)(CC1CS1)c1ccc(Oc2ccc(F)cc2)cc1` (racemic), the Ki in [4] was 44 nM; in data set [1], 580 nM; in data set [2] it was 61 nM. Further, the inhibition entry in data set [16] is “inactive”. Further, the inhibition stood at 50% on Stromelysin-1 [17] and 9% in data set [15]. For the same compound, the t1/2 in the data set with Liver is reported as 3.7 min.
